Values of other authors in publication PMC11767697, “Radiocobalt-Labeling of a Polypyridylamine Chelate Conjugated to GE11 for EGFR-Targeted Theranostics” (Molecules, 2025).

Conditions: Co(II) complex
Procedure: The promising therapeutic properties of the AEE, ^58mCo (T1/2 = 9.1 h), have been theoretically predicted and confirmed by in vitro and in vivo experiments using PSMA and octreotide conjugates of DOTA [[2],[11 ...

Row | SMILES | stability (binding) constant Log(β) (comparable conditions) | stability constant Log(β)
1 | O=C([O-])CN(CCN(CC(=O)[O-])CC(=O)[O-])CC(=O)[O-].[Co+2] [[Co^II(EDTA)]^2-] | 16.1 | –
2 | [Co+2].c1ccc(CN(CCN(Cc2ccccn2)Cc2ccccn2)Cc2ccccn2)nc1 [[Co^II(TPEN)]^2+] | – | 16.6
